# Results as given in patent publication US8765779B2, “Tricyclic derivatives and their pharmaceutical use and compositions” (Cephalon, Inc., priority 2009, dated 2014).
# Counter-ions that a name gives are not always drawn.
row,SMILES,melting point
1,CC(C)Oc1cccc(S(=O)(=O)c2ccc3c(c2)OC2CNCCC32)c1F (stereo not drawn) (as salt: HCl) [Example 483],221 to 224 °C
2,"O=S1(=O)CCC2(CC1)NCCc1c2oc2cc(S(=O)(=O)c3cccc(F)c3)ccc12 (as salt: HCl) [Example 38, 7-[(3-fluorophenyl)sulfonyl]-2′,3,3′,4,5′,6′-hexahydro-2H-spiro[1-benzofuro[2,3-c]pyridine-1,4′-thiopyran] 1′,1′-dioxide]",298 to 300 °C (dec.)
3,N#CCCCCOc1cccc(S(=O)(=O)c2ccc3c(c2)OC2CNCCC32)c1 (stereo not drawn) (as salt: HCl) [Example 574],189 to 190 °C
4,"CC12CCNCC1Oc1ccc(S(=O)(=O)c3ccncc3)cc12 (racemic) (as salt: HCl) [Example 13, 4a-methyl-6-(pyridin-4-ylsulfonyl)-1,2,3,4,4a,9a-hexahydro[1]benzofuro[2,3-c]pyridine]",186 to 188 °C
5,"O=S(=O)(c1cccc(F)c1)c1ccc2c3c(oc2c1)C(CF)(CF)NCC3 [Example 35, 1,1-bis(fluoromethyl)-7-[(3-fluorophenyl)sulfonyl]-1,2,3,4-tetrahydro[1]benzofuro[2,3-c]pyridine]",154 to 157 °C
6,"CC(C)Oc1cccc(S(=O)(=O)c2ccc3c(c2)OC2CNCCC32C)c1 (single isomer, unassigned) (as salt: HCl) [Example 20, 4a-methyl-7-{[3-(propan-2-yloxy)phenyl]sulfonyl}-1,2,3,4,4a,9a-hexahydro[1]benzofuro[2,3-c]pyridine]",184 to 185 °C
7,COc1c(F)cc(F)cc1S(=O)(=O)c1ccc2c(c1)OC1CNCCC21C (stereo not drawn) (as salt: HCl) [Example 486],259 to 261 °C
8,"O=S(=O)(c1cccc(OCC2CCOCC2)c1)c1ccc2c(c1)OC1CNCCC21 (stereo not drawn) (as salt: HCl) [Example 570, 7-{[3-(tetrahydro-2H-pyran-4-ylmethoxy)phenyl]sulfonyl}-1,2,3,4,4a,9a-hexahydro[1]benzofuro[2,3-c]pyridine]",188 to 190 °C
9,"CC(C)CC1(C)NCCc2c1oc1cc(S(=O)(=O)c3cccc(F)c3)ccc21 (racemic) (as salt: HCl) [Example 36, 7-[(3-fluorophenyl)sulfonyl]-1-methyl-1-(2-methylpropyl)-1,2,3,4-tetrahydro[1]benzofuro[2,3-c]pyridine]",284 to 286 °C
10,"Cc1cccc(S(=O)(=O)c2ccc3c(c2)OC2CNCCC32C)n1 (racemic) (as salt: HCl) [Example 6, 4a-methyl-7-[(6-methylpyridin-2-yl)sulfonyl]-1,2,3,4,4a,9a-hexahydro[1]benzofuro[2,3-c]pyridine]",255 to 258 °C
11,O=S(=O)(c1cc(F)cc(OCC2CCOCC2)c1)c1ccc2c(c1)OC1CNCCC21 (stereo not drawn) (as salt: HCl) [Example 591],203 to 204 °C
12,"CC(C)C(=O)NCC1(C)NCCc2c1oc1cc(S(=O)(=O)c3cccc(F)c3)ccc21 (stereo not drawn) (as salt: HCl) [Example 491, N-[7-(3-Fluoro-benzenesulfonyl)-1-methyl-1,2,3,4-tetrahydro-benzofuro[2,3-c]pyridin-1-ylmethyl]-isobutyramide]",220 to 225 °C (dec.)
13,"CC(C)Oc1cccc(S(=O)(=O)c2ccc3c4c(oc3c2)C(C)(C)NCC4)c1 (as salt: HCl) [Example 15, 1,1-dimethyl-7-{[3-(propan-2-yloxy)phenyl]sulfonyl}-1,2,3,4-tetrahydro[1]benzofuro[2,3-c]pyridine]",243 to 245 °C
14,"CC1(C)CNC2(CCOC2)c2oc3cc(S(=O)(=O)c4cccc(F)c4)ccc3c21 (racemic) (as salt: HCl) [Example 46, 7-[(3-fluorophenyl)sulfonyl]-4,4-dimethyl-3,4,4′,5′-tetrahydro-2H-spiro[1-benzofuro[2,3-c]pyridine-1,3′-furan]]",263 to 268 °C
15,"CC1(C)CNC2(CCOCC2)c2oc3cc(S(=O)(=O)c4cccc(F)c4)ccc3c21 (as salt: HCl) [Example 2, 7-[(3-fluorophenyl)sulfonyl]-4,4-dimethyl-2′,3,3′,4,5′,6′-hexahydro-2H-spiro[1-benzofuro[2,3-c]pyridine-1,4′-pyran]]",286 to 288 °C
16,"CC1OCCC12NCCc1c2oc2cc(S(=O)(=O)c3cccc(F)c3)ccc12 (single isomer, unassigned) (as salt: HCl) [Example 59, 7-[(3-Fluorophenyl)sulfonyl]-2′-methyl-3,4,4′,5′-tetrahydro-2H-spiro[1-benzofuro[2,3-c]pyridine-1,3′-furan]]",262 to 265 °C
17,CCCCOc1cccc(S(=O)(=O)c2ccc3c(c2)OC2CNCCC32)c1 (stereo not drawn) (as salt: HCl) [Example 554],206 to 208 °C
18,"COCC1(COC)NCCc2c1oc1cc(S(=O)(=O)c3cccc(F)c3)ccc21 (as salt: HCl) [Example 39, 7-[(3-fluorophenyl)sulfonyl]-1,1-bis(methoxymethyl)-1,2,3,4-tetrahydro[1]benzofuro[2,3-c]pyridine]",196 to 198 °C
19,"Cc1cccc(S(=O)(=O)c2ccc3c4c(oc3c2)C(C)(C)NCC4)n1 (as salt: HCl) [Example 19, 1,1-dimethyl-7-[(6-methylpyridin-2-yl)sulfonyl]-1,2,3,4-tetrahydro[1]benzofuro[2,3-c]pyridine]",305 to 310 °C
20,O=S(=O)(c1ccc2c(c1)OC1CNCCC21)c1cccc(OCC2CCOCC2)c1Cl (stereo not drawn) (as salt: HCl) [Example 485],185 to 187 °C
21,"CC12CCNCC1Oc1cc(S(=O)(=O)c3cccc(F)c3)ccc12 (racemic) (as salt: HCl) [Example 11, 7-[(3-fluorophenyl)sulfonyl]-4a-methyl-1,2,3,4,4a,9a-hexahydro[1]benzofuro[2,3-c]pyridine]",288 to 290 °C

row,SMILES,melting point
1,"CN(C)C(=O)CC1(C)NCCc2c1oc1cc(S(=O)(=O)c3cccc(F)c3)ccc21 (racemic) (as salt: HCl) [Example 40, 2-{7-[(3-fluorophenyl)sulfonyl]-1-methyl-1,2,3,4-tetrahydro[1]benzofuro[2,3-c]pyridin-1-yl}-N,N-dimethylacetamide]",220 to 223 °C
2,COc1cc(OC2CCC2)cc(S(=O)(=O)c2ccc3c(c2)OC2CNCCC32)c1 (stereo not drawn) (as salt: HCl) [Example 583],218 to 220 °C
3,NC(=O)COc1cccc(S(=O)(=O)c2ccc3c(c2)OC2CNCCC32)c1 (stereo not drawn) (as salt: HCl) [Example 563],237 to 239 °C
4,O=S(=O)(c1cccc(OCC2CCCCO2)c1)c1ccc2c(c1)OC1CNCCC21 (stereo not drawn) (as salt: HCl) [Example 553],192 to 194 °C
5,COc1cc(OC2CCCC2)cc(S(=O)(=O)c2ccc3c(c2)OC2CNCCC32)c1 (stereo not drawn) (as salt: HCl) [Example 586],239 to 241 °C
6,O=S(=O)(c1cc(F)cc(OCc2ccccc2)c1)c1ccc2c(c1)OC1CNCCC21 (stereo not drawn) (as salt: HCl) [Example 484],171 to 172 °C
7,CCCOc1cccc(S(=O)(=O)c2ccc3c(c2)OC2CNCCC32)c1 (stereo not drawn) (as salt: HCl) [Example 572],210 to 213 °C
8,CN(C)C(=O)c1c(F)cccc1S(=O)(=O)c1ccc2c(c1)OC1CNCCC21 (stereo not drawn) (as salt: HCl) [Example 476],283 to 286 °C
9,CCCCCOc1cccc(S(=O)(=O)c2ccc3c(c2)OC2CNCCC32)c1 (stereo not drawn) (as salt: HCl) [Example 557],199 to 201 °C
10,COc1cccc(COc2cccc(S(=O)(=O)c3ccc4c(c3)OC3CNCCC43)c2)c1 (stereo not drawn) (as salt: HCl) [Example 575],247 to 248 °C
11,CC(C)Oc1cc(OCCO)cc(S(=O)(=O)c2ccc3c(c2)OC2CNCCC32)c1 (stereo not drawn) (as salt: HCl) [Example 590],205 to 208 °C
12,"CC(C)Oc1cccc(S(=O)(=O)c2ccc3c(c2)OC2CNCCC32C)c1 (single isomer, unassigned) (as salt: HCl) [Example 21, 4a-methyl-7-{[3-(propan-2-yloxy)phenyl]sulfonyl}-1,2,3,4,4a,9a-hexahydro[1]benzofuro[2,3-c]pyridine]",183 to 184 °C
13,O=S(=O)(c1cccc(OCC(F)F)c1)c1ccc2c(c1)OC1CNCCC21 (stereo not drawn) (as salt: HCl) [Example 578],263 to 266 °C
14,"COc1cccc(S(=O)(=O)c2ccc3c(c2)OC2CNCCC32C)c1 (racemic) (as salt: HCl) [Example 4, 7-[(3-methoxyphenyl)sulfonyl]-4a-methyl-1,2,3,4,4a,9a-hexahydro[1]benzofuro[2,3-c]pyridine]",279 to 280 °C
15,"CCOCC1NCCc2c1oc1cc(S(=O)(=O)c3cccc(F)c3)ccc21 (racemic) (as salt: HCl) [Example 33, 1-(ethoxymethyl)-7-[(3-fluorophenyl)sulfonyl]-1,2,3,4-tetrahydro[1]benzofuro[2,3-c]pyridine]",230 to 250 °C (dec.)
16,Cc1cc(COc2cccc(S(=O)(=O)c3ccc4c(c3)OC3CNCCC43)c2)no1 (stereo not drawn) (as salt: HCl) [Example 565],215 to 217 °C
17,"COc1ccc(S(=O)(=O)c2ccc3c(c2)OC2CNCCC32C)cc1 (racemic) (as salt: HCl) [Example 5, 7-[(4-methoxyphenyl)sulfonyl]-4a-methyl-1,2,3,4,4a,9a-hexahydro[1]benzofuro[2,3-c]pyridine]",283 to 284 °C
18,COc1cc(OC)cc(S(=O)(=O)c2ccc3c(c2)OC2CNCCC32)c1 (stereo not drawn) (as salt: HCl) [Example 480],248 to 251 °C
19,"CC1(C)CNC2(CCOCC2)c2oc3cc([S+]([O-])c4cccc(F)c4)ccc3c21 (racemic) (as salt: HCl) [Example 47, 7-[(3-fluorophenyl)sulfinyl]-4,4-dimethyl-2′,3,3′,4,5′,6′-hexahydro-2H-spiro[1-benzofuro[2,3-c]pyridine-1,4′-pyran]]",248 to 253 °C
20,"O=S(=O)(c1cccc(OCC2CCOCC2)c1)c1ccc2c(c1)OC1CNCCC21 (single isomer, unassigned) (as salt: HCl) [Example 548, 7-{[3-(Tetrahydro-2H-pyran-4-ylmethoxy)phenyl]sulfonyl}-1,2,3,4,4a,9a-hexahydro[1]benzofuro[2,3-c]pyridine]",187 to 189 °C
21,COC(=O)CCCCOc1cccc(S(=O)(=O)c2ccc3c(c2)OC2CNCCC32)c1 (stereo not drawn) (as salt: HCl) [Example 556],179 to 181 °C
